This is an account of results in patent US12441691B2 (Cytokinetics, Inc., priority 2020, dated 2025).

The test relates to rabbit skeletal myofibrils (fast skeletal myofibrils). Nature of the test: Activation of fast skeletal myofibrils (PUMA assay, AC1.4). As to conditions: calcium at pCa25, AC1.4 = concentration at which the compound increased the enzymatic activity. Format: biochemical. Put shortly: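 In 12 mM PIPES pH 6.8 with 2 mM MgCl2 and 1 mM DTT, Triton-washed rabbit skeletal myofibrils were run at the pCa25 calcium level. Myosin-made ADP was recycled through a PK/LDH coupled system; NADH loss read at 340 nm.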

SMILES strings stand for the structures.

Consider `CC[C@H](C)[C@H]1C(=O)Nc2ccccc2CN1/C(=N/C#N)NC` [Compound 87, (S,E)-3-((S)-sec-butyl)-N′-cyano-N-methyl-2-oxo-1,2,3,5-tetrahydro-4H-benzo[e][1,4]diazepine-4-carboximidamide], for which the AC1.4 worked out at 0.07 µM.
`CC(C)[C@H]1C(=O)Nc2ccccc2CN1c1nccc(=O)[nH]1` [Compound 88, (S)-3-isopropyl-4-(6-oxo-1,6-dihydropyrimidin-2-yl)-1,3,4,5-tetrahydro-2H-benzo[e][1,4]diazepin-2-one]: the AC1.4 was found to be 1.22 µM.
On to `CC[C@H](C)[C@H]1C(=O)Nc2ccccc2CN1S(=O)(=O)c1ccc(F)cc1` [Compound 89, (S)-3-((S)-sec-butyl)-4-((4-fluorophenyl)sulfonyl)-1,3,4,5-tetrahydro-2H-benzo[e][1,4]diazepin-2-one], for which the AC1.4 was 0.18 µM.
For `CC(=O)N1Cc2ccccc2NC(=O)[C@@H]1C1CCCCCC1` [Compound 91, (S)-4-acetyl-3-cycloheptyl-1,3,4,5-tetrahydro-2H-benzo[e][1,4]diazepin-2-one] the value was 0.08 µM.
The value for `O=C1Nc2ccccc2CN(C(=O)CO)[C@H]1C1CCCCC1` [Compound 92, (S)-3-cyclohexyl-4-(2-hydroxyacetyl)-1,3,4,5-tetrahydro-2H-benzo[e][1,4]diazepin-2-one] was 0.40 µM; that for `CC[C@H](C)[C@H]1C(=O)Nc2ccccc2CN1C(=O)Nc1ccc(=O)n(C)c1` [Compound 93, (S)-3-((S)-sec-butyl)-N-(1-methyl-6-oxo-1,6-dihydropyridin-3-yl)-2-oxo-1,2,3,5-tetrahydro-4H-benzo[e][1,4]diazepine-4-carboxamide] was 0.13 µM; that for `CC[C@H](C)[C@H]1C(=O)Nc2ccccc2CN1C(=O)Nc1cccn(C)c1=O` [Compound 94, (S)-3-((S)-sec-butyl)-N-(1-methyl-2-oxo-1,2-dihydropyridin-3-yl)-2-oxo-1,2,3,5-tetrahydro-4H-benzo[e][1,4]diazepine-4-carboxamide] was 0.15 µM.
Turning to `CC[C@H](C)[C@H]1C(=O)Nc2ccccc2CN1C(=O)c1c[nH]c(=O)[nH]1` [Compound 95, (S)-3-((S)-sec-butyl)-4-(2-oxo-2,3-dihydro-1H-imidazole-4-carbonyl)-1,3,4,5-tetrahydro-2H-benzo[e][1,4]diazepin-2-one], the AC1.4 is 0.04 µM.
`CC[C@H](C)[C@H]1C(=O)Nc2ccccc2CN1C(=O)Nc1cccnc1` [Compound 99, (S)-3-((S)-sec-butyl)-2-oxo-N-(pyridin-3-yl)-1,2,3,5-tetrahydro-4H-benzo[e][1,4]diazepine-4-carboxamide]: the AC1.4 stood at 0.05 µM.
With `CC[C@H](C)[C@H]1C(=O)Nc2ccccc2CN1C(=O)Nc1cn[nH]c1` [Compound 101, (S)-3-((S)-sec-butyl)-2-oxo-N-(1H-pyrzol-4-yl)-1,2,3,5-tetrahydro-4H-benzo[e][1,4]diazepine-4-carboxamide], the AC1.4 came out at 0.05 µM.
`CC[C@H](C)[C@H]1C(=O)Nc2ccccc2CN1C(=O)N1CC(CO)C1` [Compound 102, (S)-3-((S)-sec-butyl)-4-(3-(hydroxymethyl)azetidine-1-carbonyl)-1,3,4,5-tetrahydro-2H-benzo[e][1,4]diazepin-2-one]: the AC1.4 was found to be 0.37 µM.
Regarding `CC[C@H](C)[C@H]1C(=O)Nc2ccccc2CN1C(=O)N1CC[C@H]1C(N)=O` [Compound 103, (S)-1-((S)-3-((S)-sec-butyl)-2-oxo-2,3,4,5-tetrahydro-1H-benzo[e][1,4]diazepine-4-carbonyl)azetidine-2-carboxamide], the AC1.4 was 1.22 µM.
For the compound `CC[C@H](C)[C@H]1C(=O)Nc2ccccc2CN1C(=O)c1c[nH]cn1` [Compound 104, (S)-3-((S)-sec-butyl)-4-(1H-imidazole-4-carbonyl)-1,3,4,5-tetrahydro-2H-benzo[e][1,4]diazepin-2-one], the AC1.4 was 0.08 µM.
Turning to `CC[C@H](C)[C@H]1C(=O)Nc2ccccc2CN1C(=O)c1ccn[nH]1` [Compound 105, (S)-3-((S)-sec-butyl)-4-(1H-pyrazole-5-carbonyl)-1,3,4,5-tetrahydro-2H-benzo[e][1,4]diazepin-2-one], the AC1.4 came out at 0.10 µM.
As for `CC[C@H](C)[C@H]1C(=O)Nc2ccccc2CN1C(=O)[C@@H]1CCCO1` [Compound 106, (S)-3-((S)-sec-butyl)-4-((S)-tetrahydrofuran-2-carbonyl)-1,3,4,5-tetrahydro-2H-benzo[e][1,4]diazepin-2-one], the AC1.4 was determined as 0.89 µM.
For `CC[C@H](C)[C@H]1C(=O)Nc2ccccc2CN1C(=O)[C@H]1CCCO1` [Compound 107, (S)-3-((S)-sec-butyl)-4-((R)-tetrahydrofuran-2-carbonyl)-1,3,4,5-tetrahydro-2H-benzo[e][1,4]diazepin-2-one] the value was 0.29 µM; for `CC[C@H](C)[C@H]1C(=O)Nc2ccccc2CN1C(=O)c1cnccn1` [Compound 108, (S)-3-((S)-sec-butyl)-4-(pyrazine-2-carbonyl)-1,3,4,5-tetrahydro-2H-benzo[e][1,4]diazepin-2-one], 0.19 µM.
As to `CC[C@H](C)[C@H]1C(=O)Nc2ccccc2CN1C(=O)c1cnc(C(N)=O)cn1` [Compound 109, 5-((S)-3-((S)-sec-butyl)-2-oxo-2,3,4,5-tetrahydro-1H-benzo[e][1,4]diazepine-4-carbonyl)pyrazine-2-carboxamide], the AC1.4 was 0.17 µM.
As to `CC[C@H](C)[C@H]1C(=O)Nc2ccccc2CN1C(=O)CS(N)(=O)=O` [Compound 110, 2-((S)-3-((S)-sec-butyl)-2-oxo-1,2,3,5-tetrahydro-4H-benzo[e][1,4]diazepin-4-yl)-2-oxoethane-1-sulfonamide], the AC1.4 turned out to be 1.36 µM.
For `CC[C@H](C)[C@H]1C(=O)Nc2ccccc2CN1C(=O)CS(C)(=O)=O` [Compound 111, (S)-3-((S)-sec-butyl)-4-(2-(methylsulfonyl)acetyl)-1,3,4,5-tetrahydro-2H-benzo[e][1,4]diazepin-2-one] the value was 4.90 µM; for `CC[C@H](C)[C@H]1C(=O)Nc2ccccc2CN1/C(N)=N/S(C)(=O)=O` [Compound 112, (S,E)-3-((S)-sec-butyl)-N′-(methylsulfonyl)-2-oxo-1,2,3,5-tetrahydro-4H-benzo[e][1,4]diazepine-4-carboximidamide], 0.81 µM.
On to `CC[C@H](C)[C@H]1C(=O)Nc2ccccc2CN1/C(N)=N/C(C)=O` [Compound 113, N-((E)-amino((S)-3-((S)-sec-butyl)-2-oxo-1,2,3,5-tetrahydro-2H-benzo[e][1,4]diazepin-4-yl)methylene)acetamide], for which the AC1.4 was 0.15 µM.
The value for `CC[C@H](C)[C@H]1C(=O)Nc2ccccc2CN1c1ncccn1` [Compound 114, (S)-3-((S)-sec-butyl)-4-(pyrimidin-2-yl)-1,3,4,5-tetrahydro-2H-benzo[e][1,4]diazepin-2-one] was 0.05 µM; that for `CC[C@H](C)[C@H]1C(=O)Nc2ccccc2CN1c1cc(=O)n(C)cn1` [Compound 115, (S)-3-((S)-sec-butyl)-4-(1-methyl-6-oxo-1,6-dihydropyrimidin-4-yl)-1,3,4,5-tetrahydro-2H-benzo[e][1,4]diazepin-2-one] was 0.08 µM.
Turning to `CC[C@H](C)[C@H]1C(=O)Nc2ccccc2CN1c1nc(OC)cc(OC)n1` [Compound 116, (S)-3-((S)-sec-butyl)-4-(4,6-dimethoxypyrimidin-2-yl)-1,3,4,5-tetrahydro-2H-benzo[e][1,4]diazepin-2-one], the AC1.4 is 0.05 µM.
As to `CC[C@H](C)[C@H]1C(=O)Nc2ccccc2CN1c1nc(N)nn1C` [Compound 117, (S)-4-(3-amino-1-methyl-1H-1,2,4-triazol-5-yl)-3-((S)-sec-butyl)-1,3,4,5-tetrahydro-2H-benzo[e][1,4]diazepin-2-one], the AC1.4 was 0.07 µM.
For the compound `CC[C@H](C)[C@H]1C(=O)Nc2ccccc2CN1c1nc(N)n(C)n1` [Compound 118, (S)-4-(5-amino-1-methyl-1H-1,2,4-triazol-3-yl)-3-((S)-sec-butyl)-1,3,4,5-tetrahydro-2H-benzo[e][1,4]diazepin-2-one], the AC1.4 is 0.08 µM.
The value for `CC[C@H](C)[C@H]1C(=O)Nc2ccccc2CN1S(=O)(=O)CCOC` [Compound 119, (S)-3-((S)-sec-butyl)-4-((2-methoxyethyl)sulfonyl)-1,3,4,5-tetrahydro-2H-benzo[e][1,4]diazepin-2-one] was 2.44 µM; that for `CC[C@H](C)[C@H]1C(=O)Nc2ccccc2CN1S(=O)(=O)NC` [Compound 120, (S)-3-((S)-sec-butyl)-N-methyl-2-oxo-1,2,3,5-tetrahydro-4H-benzo[e][1,4]diazepine-4-sulfonamide] was 0.12 µM.
For the compound `NC(=O)N1Cc2ccccc2NC(=O)[C@@H]1C1CCC1` [Compound 121, (S)-3-cyclobutyl-2-oxo-1,2,3,5-tetrahydro-4H-benzo[e][1,4]diazepine-4-carboxamide], the AC1.4 was 4.80 µM.
For the compound `Cn1cc(C(=O)N2Cc3ccccc3NC(=O)[C@@H]2C2CCC2)cn1` [Compound 122, (S)-3-cyclobutyl-4-(1-methyl-1H-pyrazole-4-carbonyl)-1,3,4,5-tetrahydro-2H-benzo[e][1,4]diazepin-2-one], the AC1.4 was 3.16 µM.
For `NC(=O)N1Cc2ccccc2NC(=O)[C@@H]1C1CCCC1` [Compound 123, (S)-3-cyclopentyl-2-oxo-1,2,3,5-tetrahydro-4H-benzo[e][1,4]diazepine-4-carboxamide] the value was 0.35 µM; for `O=C1Nc2ccccc2CN(C(=O)CCO)[C@H]1C1CCCCC1` [Compound 124, (S)-3-cyclohexyl-4-(3-hydroxypropanoyl)-1,3,4,5-tetrahydro-2H-benzo[e][1,4]diazepin-2-one], 0.38 µM; for `NC(=O)c1ccc(C(=O)N2Cc3ccccc3NC(=O)[C@@H]2C2CCCCC2)cc1` [Compound 125, (S)-4-(3-cyclohexyl-2-oxo-2,3,4,5-tetrahydro-1H-benzo[e][1,4]diazepine-4-carbonyl)benzamide], 0.29 µM.
